Data published in patent publication US10335503B2, “Compound that specifically binds to AMPA receptor” (Public University Corporation Yokohama City University, priority 2015, dated 2019).

Assays:
[1] = system: AMPA receptor; test: Electrophysiological experiment: AMPA current by whole-cell recording in acute hippocampus section; assay type: cell-based, rat; conditions: 150 μM in ACSF for 15 minutes, CA1 pyramidal cell, ground state converted as 1
Procedure: In the LC-MS/MS experiment, all of the synthesized compounds were dissolved in 100% DMSO so as to have a concentration of 2.5 mM, diluted with physiological saline water immediately before administration (PEPA (1.2 pmol/g), M-1 (12 pmol/g), K-2 (12 pmol/g), M-3 (60 pmol/g), and M-2 (240 pmol/g)), and administered by the parenteral route. In the electrophysiological experiment, PEPA and K-2 were dissolved in 100% DMSO so as to have a concentration of 150 mM, diluted with ACSF as a reflux liquid immediately before the experiment so as to have a concentration of 150 μM and then used. […]
A 7- to 8-week-old male SD rat was used. […] The section was left to stand still in ACSF at room temperature for 60 minutes, and then the AMPA current was measured by a whole-cell recording method. 100 μM of picrotoxin and 100 μM of DL-APV were administered under the condition that the ACSF was refluxed at a rate of 3 ml/min, and then only the AMPA current was isolated and measured.
The recording electrode was placed on a pyramidal cell in CA1, and the exciting electrode was placed on the Schaffer fiber separated away from the recording cell by 100 to 200 μm. […] The AMPA current in the ground state was recorded for 5 minutes, reflux was thereafter performed using ACSF added with PEPA or K-2 for 15 minutes, and then the AMPA current was recorded in the reflux liquid not containing PEPA or K-2 for 30 minutes. […]

[2] = target: Dopamine transporter (Homo sapiens, UniProt Q01959); test: Receptor binding panel: Dopamine transporter; conditions: K-2 at 1 × 10^−7 mol/L
Dopamine transporter, sequence (Q01959 whole entry): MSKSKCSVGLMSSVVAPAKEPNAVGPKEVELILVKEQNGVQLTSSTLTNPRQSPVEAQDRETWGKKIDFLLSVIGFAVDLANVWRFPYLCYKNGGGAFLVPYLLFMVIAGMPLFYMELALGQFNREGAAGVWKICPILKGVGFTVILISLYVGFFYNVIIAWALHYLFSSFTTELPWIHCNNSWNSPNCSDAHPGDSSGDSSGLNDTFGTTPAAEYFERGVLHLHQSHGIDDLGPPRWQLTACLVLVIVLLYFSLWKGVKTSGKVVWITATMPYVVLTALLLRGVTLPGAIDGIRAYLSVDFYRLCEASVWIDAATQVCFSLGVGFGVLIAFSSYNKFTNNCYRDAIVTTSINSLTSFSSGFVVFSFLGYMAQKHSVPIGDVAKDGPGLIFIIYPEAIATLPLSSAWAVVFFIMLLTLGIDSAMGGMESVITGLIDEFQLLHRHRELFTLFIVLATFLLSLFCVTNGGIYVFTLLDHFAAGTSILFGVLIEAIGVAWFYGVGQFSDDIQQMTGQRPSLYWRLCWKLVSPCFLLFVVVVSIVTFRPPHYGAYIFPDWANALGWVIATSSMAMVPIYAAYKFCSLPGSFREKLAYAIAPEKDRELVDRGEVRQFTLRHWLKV

[3] = target: β1-Adrenergic (Homo sapiens, UniProt P08588); test: Receptor binding panel: β1-Adrenergic; conditions: K-2 at 1 × 10^−7 mol/L
β1-Adrenergic, sequence (P08588 whole entry): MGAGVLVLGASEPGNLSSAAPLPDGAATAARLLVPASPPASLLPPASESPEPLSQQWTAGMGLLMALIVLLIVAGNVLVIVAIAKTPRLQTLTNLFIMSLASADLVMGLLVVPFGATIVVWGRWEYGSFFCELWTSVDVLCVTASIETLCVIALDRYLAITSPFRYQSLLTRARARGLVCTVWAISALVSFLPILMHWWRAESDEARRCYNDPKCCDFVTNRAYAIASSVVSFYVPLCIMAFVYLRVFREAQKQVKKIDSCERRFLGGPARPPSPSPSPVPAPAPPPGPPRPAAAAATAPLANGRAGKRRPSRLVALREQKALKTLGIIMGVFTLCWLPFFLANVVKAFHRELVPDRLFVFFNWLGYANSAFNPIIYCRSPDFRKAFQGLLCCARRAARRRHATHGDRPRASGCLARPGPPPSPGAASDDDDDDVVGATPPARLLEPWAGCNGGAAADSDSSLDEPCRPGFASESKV

[4] = target: β2-Adrenergic (Homo sapiens, UniProt P07550); test: Receptor binding panel: β2-Adrenergic; conditions: K-2 at 1 × 10^−7 mol/L
β2-Adrenergic, sequence (P07550 whole entry): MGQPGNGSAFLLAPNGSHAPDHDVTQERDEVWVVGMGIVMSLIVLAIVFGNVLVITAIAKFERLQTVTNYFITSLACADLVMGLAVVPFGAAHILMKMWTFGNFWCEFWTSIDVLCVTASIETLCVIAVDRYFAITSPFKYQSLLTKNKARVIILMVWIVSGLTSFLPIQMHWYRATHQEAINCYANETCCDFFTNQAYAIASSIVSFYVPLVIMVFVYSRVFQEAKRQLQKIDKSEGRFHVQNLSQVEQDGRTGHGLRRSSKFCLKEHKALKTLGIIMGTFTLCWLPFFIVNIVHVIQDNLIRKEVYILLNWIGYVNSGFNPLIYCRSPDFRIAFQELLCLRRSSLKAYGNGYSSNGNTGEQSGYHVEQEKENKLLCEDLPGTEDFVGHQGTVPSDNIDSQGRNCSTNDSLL

[5] = system: K Channel SKCa; test: Receptor binding panel: K Channel SKCa; conditions: K-2 at 1 × 10^−7 mol/L
[6] = system: AMPA receptor; test: Biochemical experiment: biotinylation and quantitative Western blot of AMPA receptor after administration to living rat; assay type: in vivo
Procedure: In the LC-MS/MS experiment, all of the synthesized compounds were dissolved in 100% DMSO so as to have a concentration of 2.5 mM, diluted with physiological saline water immediately before administration (PEPA (1.2 pmol/g), M-1 (12 pmol/g), K-2 (12 pmol/g), M-3 (60 pmol/g), and M-2 (240 pmol/g)), and administered by the parenteral route. In the electrophysiological experiment, PEPA and K-2 were dissolved in 100% DMSO so as to have a concentration of 150 mM, diluted with ACSF as a reflux liquid immediately before the experiment so as to have a concentration of 150 μM and then used. In the biochemical experiment and the PET blocking experiment, K-2 was dissolved in 50% DMSO so as to have a concentration of 2.5 mM and 25 mM, and then administered to a rat at an amount of administration of 1 μl/weight (g) by the parenteral route so as to be 0.5 mg/kg and 5 mg/kg.
The LC-MS/MS experiment and the biochemical experiment were performed after a rat was allowed to get to sleep by inhalation of isoflurane while anesthesia was maintained using a dedicate carburetor at a concentration of 1.5%. […] In the LC-MS/MS experiment, the hippocampus region was collected in a thickness of approximately 2 mm from the extracted whole brain using Brain matrix (ASI instruments, U.S.), the tissue weight thereof was measured, and then the hippocampus region was put into a 1.5-ml conical tube. […]

[7] = target: Vasopressin V1B (Homo sapiens, UniProt P47901); test: Receptor binding panel: Vasopressin V1B; conditions: K-2 at 1 × 10^−7 mol/L
Vasopressin V1B, sequence (P47901 whole entry): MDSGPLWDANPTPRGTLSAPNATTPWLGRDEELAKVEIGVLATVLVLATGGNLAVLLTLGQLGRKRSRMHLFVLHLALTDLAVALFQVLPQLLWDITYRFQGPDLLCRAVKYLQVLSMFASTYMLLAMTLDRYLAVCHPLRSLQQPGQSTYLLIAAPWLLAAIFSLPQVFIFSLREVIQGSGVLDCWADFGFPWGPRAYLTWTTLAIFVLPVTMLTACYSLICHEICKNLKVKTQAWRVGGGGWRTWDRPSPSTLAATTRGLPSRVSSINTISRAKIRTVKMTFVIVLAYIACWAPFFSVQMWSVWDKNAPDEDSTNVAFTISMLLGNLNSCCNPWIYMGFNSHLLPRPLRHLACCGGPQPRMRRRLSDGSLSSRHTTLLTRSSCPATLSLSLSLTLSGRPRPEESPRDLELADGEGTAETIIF

[8] = system: GABA A (Agonist site); test: Receptor binding panel: GABA A (Agonist site); conditions: K-2 at 1 × 10^−7 mol/L

CN(CCSc1cc(F)c(OCC(N)=O)c(F)c1)S(=O)(=O)c1ccccc1 [K-2, {4-[2-(benzenesulfonyl-methyl-amino)-ethylsulfanil]-2,6-difluoro-phenoxy}-acetamide]
ratio of AMPA current to reference value [1]: 1.7±0.22
inhibition at 0.1 µM [2]: 0.29%
inhibition at 0.1 µM [3]: 0.82%
inhibition at 0.1 µM [4]: 3.39%
Inhibition (%) [5]: 0.00%
AMPA receptor presented on the surface of the cell membrane ([6]; 5 mg/kg of K-2, hippocampus, vs 50% DMSO): 136%±14
change in the total amount of the AMPA receptors ([6]; 5 mg/kg of K-2, same animal): not recognized
inhibition at 0.1 µM [7]: 1.48%
Inhibition (%) [8]: 0.38%
